Measured values taken from patent US7405240B2, “Substituted cyclopentanes or cyclopentanones as therapeutic agents” (Allergan, Inc., priority 2006, dated 2008).

Key:
[1] = test system: laser-induced hypertensive monkeys; test: Intraocular pressure in laser-induced hypertensive monkeys; assay type: in vivo, monkey; details: one single day dose
Description: (§1) (Z)-7-[(1R,2S,3R,5R)-5-Chloro-2-(3,5-dichloro-phenoxymethyl)-3-hydroxy-cyclopentyl]-hept-5-enoic acid (15b) was tested at multiple concentrations in normotensive dogs, dosing once daily for 5 days. At 0.05%, the maximum IOP decrease from baseline was 4.3 mmHg (30%) at 6 h; the maximum OSH score was 0.6 at 6 h. […] This compound was also tested in laser-induced hypertensive monkeys, using one single day dose. At 0.1%, the maximum IOP decrease from baseline was 6 mmHg (19%) at 6 h.
(§2) (Z)-7-[(1R,2S,3R,5R)-5-Chloro-2-(3,5-dichloro-phenoxymethyl)-3-hydroxy-cyclopentyl]-hept-5-enoic acid isopropyl ester (42b) was tested in normotensive dogs at 0.05%, dosing once daily for 5 days. The maximum intraocular pressure (IOP) decrease from baseline was 3 mmHg (19%) at 6 h; the maximum ocular surface hyperemia (OSH) score was 0.6 at 74 h. This compound was also tested in laser-induced hypertensive monkeys, using one single day dose. At 0.01%, the maximum IOP decrease from baseline was 6 mmHg (16%) at 6 h.

normotensive dogs = test: Intraocular pressure and ocular surface hyperemia in normotensive dogs; assay type: in vivo, dog; parameters: maximum OSH score: scale not given here; details: once daily for 5 days
Description: as §1, §2

hEP2 [2] = target: T1, hEP2 (Homo sapiens, UniProt P43116); test: cAMP assay, hEP2; assay type: cell-based
T1 sequence (P43116 whole entry): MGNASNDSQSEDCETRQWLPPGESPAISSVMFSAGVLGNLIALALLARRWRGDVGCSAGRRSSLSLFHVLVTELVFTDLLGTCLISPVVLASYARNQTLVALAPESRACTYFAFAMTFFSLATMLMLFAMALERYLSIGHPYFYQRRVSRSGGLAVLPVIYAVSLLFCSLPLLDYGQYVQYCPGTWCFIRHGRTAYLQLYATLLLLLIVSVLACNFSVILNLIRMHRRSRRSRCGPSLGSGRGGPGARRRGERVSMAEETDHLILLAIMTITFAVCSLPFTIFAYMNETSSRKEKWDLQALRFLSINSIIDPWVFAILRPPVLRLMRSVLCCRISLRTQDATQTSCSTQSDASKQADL

hEP4 [3] = target: T2, hEP4 (Homo sapiens, UniProt P35408); test: Radioligand binding, EP4 receptor; parameters: expressed in transfected cells; host or cells: HEK-293; details: [3H]PGE2, HEK-293 cells expressing EP4
T2 sequence (P35408 whole entry): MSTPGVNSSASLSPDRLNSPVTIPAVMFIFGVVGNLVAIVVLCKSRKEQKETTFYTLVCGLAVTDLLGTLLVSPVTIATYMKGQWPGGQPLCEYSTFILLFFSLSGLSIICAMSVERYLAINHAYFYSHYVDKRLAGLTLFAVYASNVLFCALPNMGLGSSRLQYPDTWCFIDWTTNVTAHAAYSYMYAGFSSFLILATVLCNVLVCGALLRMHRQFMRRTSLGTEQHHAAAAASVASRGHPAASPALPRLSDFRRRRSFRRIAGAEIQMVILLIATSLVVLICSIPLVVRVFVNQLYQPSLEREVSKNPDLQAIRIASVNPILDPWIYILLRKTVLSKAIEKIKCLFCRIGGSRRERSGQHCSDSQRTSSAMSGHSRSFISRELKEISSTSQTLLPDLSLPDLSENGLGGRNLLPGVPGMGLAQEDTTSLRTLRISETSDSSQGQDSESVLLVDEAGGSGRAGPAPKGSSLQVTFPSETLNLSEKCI
Method in brief: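 HEK-293 membranes stably expressing human EP4, in TME buffer pH 7.4; competition vs 5 nM [3H]-PGE2, 60 min at 25 °C, stopped by GF/B filtration. Non-specific binding defined with 10^−5 M unlabeled PGE2; duplicates, at least three experiments.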

hEP2 [4] = target: T1, hEP2; test: FLIPR calcium signal, hEP2; assay type: cell-based; parameters: expressed in transfected cells; host or cells: HEK-293(EBNA); details: HEK-293(EBNA) cells expressing hEP2/Gqs5
Method in brief: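 HEK-293(EBNA) cells stably expressing a single human prostaglandin receptor (hDP/Gqs5 chimera for DP), Fluo-4 AM loaded, in HBSS-HEPES pH 7.4 at 37 °C. Peak calcium fluorescence scaled to buffer and receptor standard agonist; 10^−5 M single-point or 10^−5–10^−11 M curves, duplicates, n≥3.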

hEP4 [5] = target: T2, hEP4; test: FLIPR calcium signal, hEP4; assay type: cell-based; parameters: expressed in transfected cells; host or cells: HEK-293(EBNA); details: HEK-293(EBNA) cells expressing hEP4/Gqs5
Description: Methods for FLIPR™ Studies
HEK-293(EBNA) cells, stably expressing one type or subtype of recombinant human prostaglandin receptors (prostaglandin receptors expressed: hDP/Gqs5; hEP1; hEP2/Gqs5; hEP3A/Gqi5; hEP4/Gqs5; hFP; hIP; hTP), were cultured in 100 mm culture dishes in high-glucose DMEM medium containing 10% fetal bovine serum, 2 mM 1-glutamine, 250 μg/ml geneticin (G418) and 200 μg/ml hygromycin B as selection markers, and 100 units/ml penicillin G, 100 μg/ml streptomycin and 0.25 μg/ml amphotericin B.
Cells were seeded at a density of 5×10^4 cells per well in Biocoat® Poly-D-lysine-coated black-wall, clear-bottom 96-well plates (Becton-Dickinson) and allowed to attach overnight in an incubator at 37° C. Cells were then washed two times with HBSS-HEPES buffer (Hanks Balanced Salt Solution without bicarbonate and phenol red, 20 mM HEPES, pH 7.4) using a Denley Cellwash plate washer (Labsystems). After 45 minutes of dye-loading in the dark, using the calcium-sensitive dye Fluo-4 AM at a final concentration of 2 μM, plates were washed four times with HBSS-HEPES buffer to remove excess dye leaving 100 μl in each well. Plates were re-equilibrated to 37° C. for a few minutes.
Cells were excited with an Argon laser at 488 nm, and emission was measured through a 510-570 nm bandwidth emission filter (FLIPR™, Molecular Devices, Sunnyvale, Calif.). Drug solution was added in a 50 μl volume to each well to give the desired final concentration. The peak increase in fluorescence intensity was recorded for each well. On each plate, four wells each served as negative (HBSS-HEPES buffer) and positive controls (standard agonists: BW245C (hDP); PGE2 (hEP1; hEP2/Gqs5; hEP3A/Gqi5; hEP4/Gqs5); PGF2α (hFP); carbacyclin (hIP); U-46619 (hTP), depending on receptor). The peak fluorescence change in each drug-containing well was then expressed relative to the controls.
Compounds were tested in a high-throughput (HTS) or concentration-response (CoRe) format. In the HTS format, forty-four compounds per plate were examined in duplicates at a concentration of 10^−5 M. To generate concentration-response curves, four compounds per plate were tested in duplicates in a concentration range between 10^−5 and 10^−11 M. The duplicate values were averaged. In either, HTS or CoRe format each compound was tested on at least 3 separate plates using cells from different passages to give an n≧3.

hEP2 [6] = target: T1, hEP2; test: Competition binding, [3H]PGE2, human EP2 receptors; parameters: expressed in transfected cells; host or cells: HEK 293; details: [3H]PGE2, HEK 293 cells stably expressing human EP2; read-out: hEP2 Ki
Method in brief: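 HEK 293 membranes or cells stably expressing human EP2 were incubated with 10 nM [3H]PGE2 and test compound in HBSS/20 mM Hepes pH 7.3, 60 min at 23° C, then filtered. Non-specific binding defined with 10 μM PGE2; IC50 from single-site fit converted to Ki using KD 40 nM.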

[7] = Primates, topical, 0.1%, read-out: maximum IOP decrease from baseline
[8] = Canis lupus familiaris, topical, 120 h, 0.05%, read-out: maximum IOP decrease from baseline
[9] = Canis lupus familiaris, topical, 120 h, 0.1%, read-out: maximum IOP decrease from baseline

For `O=C(O)CCC/C=C\C[C@@H]1[C@@H](COc2cc(Cl)cc(Cl)c2)[C@H](O)C[C@H]1Cl` [Example 15b, (Z)-7-[(1R,2S,3R,5R)-5-Chloro-2-(3,5-dichloro-phenoxymethyl)-3-hydroxy-cyclopentyl]-hept-5-enoic acid], the “maximum IOP decrease from baseline” value ([1]; 0.1%) was 6 mmHg, the “time of maximum IOP decrease” value ([1]; 0.1%) was 6 h and the change in vivo at 0.1 % [1, 7] was 19%. The “maximum IOP decrease from baseline” value (normotensive dogs; 0.05%) was 4.3 mmHg, the “maximum OSH score” value (normotensive dogs; 0.05%) was 0.6 and the “time of maximum IOP decrease” value (normotensive dogs; 0.05%) was 6 h. The “time of maximum OSH score” value (normotensive dogs; 0.05%) was 6 h, the “maximum IOP decrease from baseline” value (normotensive dogs; 0.1%) was 4.8 mmHg and the “maximum OSH score” value (normotensive dogs; 0.1%) was 1.3. The “time of maximum IOP decrease” value (normotensive dogs; 0.1%) was 102 h, the “time of maximum OSH score” value (normotensive dogs; 0.1%) was 6 h and the change in vivo at 0.05 % (normotensive dogs; [8]) was 30%. For the same compound, the change in vivo at 0.1 % (normotensive dogs; [9]) was 34%.
`CC(C)OC(=O)CCC/C=C\C[C@@H]1[C@@H](COc2ccc(CO)cc2)[C@H](O)C[C@H]1Cl` [Example 42bb, (Z)-7-[(1R,2S,3R,5R)-5-Chloro-3-hydroxy-2-(4-hydroxymethyl-phenoxymethyl)-cyclopentyl]-hept-5-enoic acid isopropyl ester] was tested, and the “maximum IOP decrease from baseline” value ([1]; 0.1%) was 5.5 mmHg, the “time of maximum IOP decrease” value ([1]; 0.1%) was 6 h and the change in vivo at 0.1 % [1, 7] was 16%. For the same compound, the “maximum IOP decrease from baseline” value (normotensive dogs; 0.1%) was 4.6 mmHg, the “maximum OSH score” value (normotensive dogs; 0.1%) was 0.6 and the “time of maximum IOP decrease” value (normotensive dogs; 0.1%) was 100 h. For the same compound, the “time of maximum OSH score” value (normotensive dogs; 0.1%) was 30 h and the change in vivo at 0.1 % (normotensive dogs; [9]) was 33%.
In the case of `CC(C)OC(=O)CCC/C=C\C[C@@H]1[C@@H](COc2cccc(C(F)(F)F)c2)[C@H](O)C[C@H]1Cl` [Example 42i, (Z)-7-[(1R,2S,3R,5R)-5-Chloro-3-hydroxy-2-(3-trifluoromethyl-phenoxymethyl)-cyclopentyl]-hept-5-enoic acid isopropyl ester], the “maximum IOP decrease from baseline” value ([1]; 0.1%) is reported as 4.7 mmHg, the “time of maximum IOP decrease” value ([1]; 0.1%) is reported as 6 h and the change in vivo at 0.1 % [1, 7] is reported as 14%. For the same compound, the “maximum IOP decrease from baseline” value (normotensive dogs; 0.1%) was 2.7 mmHg, the “maximum OSH score” value (normotensive dogs; 0.1%) was 0.6 and the “time of maximum IOP decrease” value (normotensive dogs; 0.1%) was 2 h. For the same compound, the “time of maximum OSH score” value (normotensive dogs; 0.1%) was 50 h and the change in vivo at 0.1 % (normotensive dogs; [9]) was 19%.
`CC(C)OC(=O)CCC/C=C\C[C@@H]1[C@@H](COc2cc(C(F)(F)F)cc(C(F)(F)F)c2)[C@H](O)C[C@H]1Cl` [Example 42c, (Z)-7-[(1R,2S,3R,5R)-2-(3,5-Bis-trifluoromethyl-phenoxymethyl)-5-chloro-3-hydroxy-cyclopentyl]-hept-5-enoic acid isopropyl ester] was tested, and the “maximum IOP decrease from baseline” value ([1]; 0.03%) was 4 mmHg, the “time of maximum IOP decrease” value ([1]; 0.03%) was 6 h and the change in vivo at 0.03 % ([1]; Primates, topical, 0.03%, read-out: maximum IOP decrease from baseline) was 11%. The “maximum IOP decrease from baseline” value (normotensive dogs; 0.03%) was 2.3 mmHg, the “maximum OSH score” value (normotensive dogs; 0.03%) was 0.7 and the “time of maximum IOP decrease” value (normotensive dogs; 0.03%) was 100 h. For the same compound, the “time of maximum OSH score” value (normotensive dogs; 0.03%) was 78 h and the change in vivo at 0.03 % (normotensive dogs; Canis lupus familiaris, topical, 120 h, 0.03%, read-out: maximum IOP decrease from baseline) was 14%.
With `CC(C)OC(=O)CCC/C=C\C[C@@H]1[C@@H](COc2cc(Cl)cc(Cl)c2)[C@H](O)C[C@H]1Cl` [Example 42b, (Z)-7-[(1R,2S,3R,5R)-5-Chloro-2-(3,5-dichloro-phenoxymethyl)-3-hydroxy-cyclopentyl]-hept-5-enoic acid isopropyl ester] the “maximum IOP decrease from baseline” value ([1]; 0.01%) was 6 mmHg, the “time of maximum IOP decrease” value ([1]; 0.01%) was 6 h and the change in vivo at 0.01 % ([1]; Primates, topical, 0.01%, read-out: maximum IOP decrease from baseline) was 16%. The “maximum IOP decrease from baseline” value (normotensive dogs; 0.05%) was 3 mmHg, the “maximum OSH score” value (normotensive dogs; 0.05%) was 0.6 and the “time of maximum IOP decrease” value (normotensive dogs; 0.05%) was 6 h. For the same compound, the “time of maximum OSH score” value (normotensive dogs; 0.05%) was 74 h and the change in vivo at 0.05 % (normotensive dogs; [8]) was 19%.
`Cc1cccc(OC[C@@H]2[C@@H](C/C=C\CCCC(=O)O)[C@H](Cl)C[C@H]2O)c1C` [Example 32, (Z)-7-[(1R,2S,3R,5R)-5-Chloro-2-(2,3-dimethyl-phenoxymethyl)-3-hydroxy-cyclopentyl]-hept-5-enoic acid] was tested, and the EC50 (hEP2 [2]) was 3 nM, the Ki (hEP4 [3]) was 1320 nM and the EC50 (hEP2 [4]) was 61 nM. The EC50 (hEP4 [5]) was > 10000 nM and the Ki (hEP2 [6]) was 122 nM.
Compound `O=C(O)CCC/C=C\C[C@@H]1[C@@H](COc2cccc(OC(=O)c3ccccc3)c2)[C@H](O)C[C@H]1Cl` [Example 29, 3-[(1S,2R,3R,5R)-2-((Z)-6-carboxy-hex-2-enyl)-3-chloro-5-hydroxy-cyclopentylmethoxy]-phenyl benzoate] has an EC50 (hEP2 [2]) of 139 nM, a Ki (hEP4 [3]) of 2380 nM and an EC50 (hEP2 [4]) of 1580 nM. For the same compound, the EC50 (hEP4 [5]) was 7680 nM and the Ki (hEP2 [6]) was 568 nM.
`O=C(O)CCCCCC[C@@H]1[C@@H](COc2cc(C(F)(F)F)cc(C(F)(F)F)c2)[C@H](O)C[C@H]1Cl` [Example 16, (Z)-7-[(1R,2S,3R,5R)-2-(3,5-Bis-trifluoromethyl-phenoxymethyl)-5-chloro-3-hydroxy-cyclopentyl]-heptanoic acid] showed an EC50 (hEP2 [2]) of 40 nM, a Ki (hEP4 [3]) of 4110 nM and an EC50 (hEP2 [4]) of 100 nM. For the same compound, the EC50 (hEP4 [5]) was 13100 nM and the Ki (hEP2 [6]) was 45 nM.
Compound `O=C(O)CCC/C=C\C[C@@H]1[C@@H](COc2cc(Cl)cc(CO)c2)[C@H](O)C[C@H]1Cl` [Example 65, (Z)-7-[(1R,2S,3R,5R)-5-Chloro-2-(3-chloro-5-hydroxymethyl-phenoxymethyl)-3-hydroxy-cyclopentyl]-hept-5-enoic acid] has an EC50 (hEP2 [2]) of 2 nM, a Ki (hEP4 [3]) of 497 nM and an EC50 (hEP2 [4]) of 520 nM. The EC50 (hEP4 [5]) was 10600 nM and the Ki (hEP2 [6]) was 64 nM.
`O=C(O)CCCCCC[C@@H]1[C@@H](COc2cccc3ccccc23)[C@H](O)C[C@H]1Cl` [Example 20, (Z)-7-[(1R,2S,3R,5R)-5-Chloro-3-hydroxy-2-(naphthalen-1-yloxymethyl)-cyclopentyl]-heptanoic acid] showed an EC50 (hEP2 [2]) of 28 nM, a Ki (hEP4 [3]) of 351 nM and an EC50 (hEP2 [4]) of 82 nM. For the same compound, the EC50 (hEP4 [5]) was 2740 nM and the Ki (hEP2 [6]) was 163 nM.
With `O=C(O)CCCCCC[C@@H]1[C@@H](COc2ccc3ccccc3c2)[C@H](O)C[C@H]1Cl` [Example 18, (Z)-7-[(1R,2S,3R,5R)-5-Chloro-3-hydroxy-2-(naphthalen-2-yloxymethyl)-cyclopentyl]-heptanoic acid] the EC50 (hEP2 [2]) was 65 nM, the Ki (hEP4 [3]) was 973 nM and the EC50 (hEP2 [4]) was 453 nM. The EC50 (hEP4 [5]) was 6310 nM and the Ki (hEP2 [6]) was 89 nM.
